The values that follow are results of earlier work, collected in paper PMC13015236 (Journal of Pharmaceutical Analysis, 2025).

Series [1] has as its system non-small cell lung cancer (NSCLC). As to conditions: NSCLC patients.
For series [2] the following is noted: patients.

With atezolizumab, the “objective response rate (ORR)” value in series [1] was 16.2%; in series [2], 24%.
With tiragolumab, the “objective response rate (ORR)” value in series [2] was 21%.
